What was measured:
[1] = DIO mice, fasting glucose and fasting insulin after single dose, experiment #1 (Example 7); format: in vivo; conditions: experiment #1, day 2
Procedure: (§1) On the morning of day 1 the mice were dosed followed by an overnight fasting. On days 2, 24 h following administration (groups A-E) or prior to the morning dosing (groups F-H), the mice were sampled for fasting glucose and fasting insulin.
In this set of experiments two independent in vivo studies were carried out. The first experiment included 8 groups (n=8) of DIO mice that were dosed for 2 days as follows: […]

[2] = DIO mice, fasting glucose and fasting insulin after single dose, experiment #2 (Example 7); format: in vivo; conditions: experiment #2, day 2; PEG-OXM single SC 6000 nmol/kg; Liraglutide 200 μg/kg bid
Procedure: as §1
The second experiment included 7 groups (n=7) of DIO mice that were dosed for 2 days as follows: […]

[3] = Diet-induced obesity mice model, Study 1: body weight and food intake; format: in vivo, C57BL/6J mice; conditions: SC, 7 days dosing, OXM 5000 nmol/kg b.i.d; for Body weight loss on Day 8 compared to control group: PEG40-FMS-OXM 5000 nmol/kg Days 1, 3, 5, 7, Sibutramine 20 mg/kg b.i.d
Procedure: Data are adjusted means (n=10). SEMs are calculated from the residuals of the statistical model. Mice were dosed for 7 days started on Day 1. […] Significant differences vs. appropriate vehicle: *p<0.05, **p<0.01, ***p<0.001. Percentage values indicate difference from appropriate vehicle group on Day 8 (i.e. after 7 days dosing).
Measurements of body weight and food intake were performed daily until Day 8. The final measurement of body weight was carried out on Day 12.
Body weight and food intake are expressed as mean values±SEM.

[4] = molecular target: CHO-K1 cells over-expressing GLP-1 receptor (Homo sapiens, UniProt P43220); conditions: rat serum 1%
Chain of CHO-K1 cells over-expressing GLP-1 receptor (P43220 24-463): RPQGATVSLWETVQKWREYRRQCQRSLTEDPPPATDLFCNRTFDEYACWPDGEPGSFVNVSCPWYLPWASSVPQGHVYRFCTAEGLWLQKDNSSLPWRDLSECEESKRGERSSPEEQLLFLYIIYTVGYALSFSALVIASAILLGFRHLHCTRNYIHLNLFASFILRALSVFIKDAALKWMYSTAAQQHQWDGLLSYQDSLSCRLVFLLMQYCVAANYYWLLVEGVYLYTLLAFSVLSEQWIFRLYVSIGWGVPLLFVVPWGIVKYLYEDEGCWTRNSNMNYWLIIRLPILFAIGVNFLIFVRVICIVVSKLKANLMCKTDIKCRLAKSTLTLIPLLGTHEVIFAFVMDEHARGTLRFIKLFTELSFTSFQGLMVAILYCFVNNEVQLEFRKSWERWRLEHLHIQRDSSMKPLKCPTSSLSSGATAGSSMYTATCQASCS
Procedure: Cells cAMP concentrations were quantified by HTRF assay (Cisbio 62AM4PEB) and EC50 parameter was analyzed by PRISM software.
Cells' cAMP concentrations were quantified by HTRF assay (Cisbio 62AM4PEB), and the EC50 parameter was analyzed by PRISM software.

[5] = IP glucose tolerance test (IPGTT); format: in vivo, C57BL/6 mice; conditions: OXM and PEG40-EMCS-OXM 333 nmol/kg 15 min before glucose, PEG40-Fmoc-OXM […] peptide content 2 hrs before, vs vehicle
Procedure: Blood glucose levels were measured by tail vein sampling prior to glucose administration and 10, 20, 30, 60 and 120 min after glucose administration using a handheld glucometer.
Blood glucose levels were measured by tail vein sampling prior to glucose administration and 10, 20, 30, 60 and 120 min after to glucose administration using a handheld glucometer.

[6] = DIO mouse model, 29 days dosing (Example 6): body weight; format: in vivo, C57BL/6J mice; conditions: SC 6,000 nmol/kg; PEG conjugates weekly, native OXM twice per day
[7] = single SC 6,000 nmol/kg (OXM b.i.d)

Molecule: CCCCCCCCCCCCCCCC(=O)N[C@@H](CCC(=O)NCCCC[C@H](NC(=O)[C@H](C)NC(=O)[C@H](C)NC(=O)[C@H](CCC(N)=O)NC(=O)CNC(=O)[C@H](CCC(=O)O)NC(=O)[C@H](CC(C)C)NC(=O)[C@H](Cc1ccc(O)cc1)NC(=O)[C@H](CO)NC(=O)[C@H](CO)NC(=O)[C@@H](NC(=O)[C@H](CC(=O)O)NC(=O)[C@H](CO)NC(=O)[C@@H](NC(=O)[C@H](Cc1ccccc1)NC(=O)[C@@H](NC(=O)CNC(=O)[C@H](CCC(=O)O)NC(=O)[C@H](C)NC(=O)[C@@H](N)Cc1cnc[nH]1)[C@@H](C)O)[C@@H](C)O)C(C)C)C(=O)N[C@@H](CCC(=O)O)C(=O)N[C@@H](Cc1ccccc1)C(=O)N[C@H](C(=O)N[C@@H](C)C(=O)N[C@@H](Cc1c[nH]c2ccccc12)C(=O)N[C@@H](CC(C)C)C(=O)N[C@H](C(=O)N[C@@H](CCCNC(=N)N)C(=O)NCC(=O)N[C@@H](CCCNC(=N)N)C(=O)NCC(=O)O)C(C)C)[C@@H](C)CC)C(=O)O [Liraglutide]
- Fasting glucose level ([1]; PEG-OXM single SC 6,000 nmol/kg on day 1, Liraglutide 200 μg/kg b.i.d): 6.06 mM
- Fasted plasma insulin level ([1]; PEG-OXM single SC 6,000 nmol/kg, Liraglutide 200 μg/kg b.i.d): 4.4 ng/mL
- Fasted plasma insulin level [2]: 3 ng/mL
- Fasting glucose level [2]: 6.7 mM

Molecule: CC(C)CC(N(C)C)C1(c2ccc(Cl)cc2)CCC1 (stereo not drawn) [Sibutramine]
- Body weight loss on Day 8 compared to control group [3]: 15.6%

Molecule: Oxyntomodulin [OXM]
- cAMP activity after incubation in rat serum versus without serum [4]: reduced activity
- Body weight loss on Day 8 compared to control group [3]: 6%
- Inhibition of food intake ([3]; PEG40-FMS-OXM 5000 nmol/kg every other day): statistically significant inhibition of food intake
- Fasting glucose compared to vehicle [1, 7]: did not show any significant difference
- Fasting plasma insulin compared to controls [1, 7]: did not show any significant difference
- Induction of glucose tolerance (blood glucose after IP glucose 1.5 gr/kg) [5]: minor effect on the glucose tolerance
- Weight loss during a 30-day period [6]: 17%

Reference: patent US20140349922A1 (priority 2011, published 2014)
